Data reported in ChEMBL document CHEMBL1201862, “PubChem BioAssay data set” (2004).
Values joined by “and” are separate entries in the source; they are usually repeats but may differ in a detail not shown here. Equal entries are not always repeated. Active and inactive are the calls of the source. For most assays here, no stated cut-off is given here; in the data, actives have a measured EC50 and inactives only a lower limit.

Experiments:
[1] = system: Streptococcus sp. 'group A'; experiment: growth inhibition of control SK(-) GAS strain, dose response, counter-screen for streptokinase expression inhibitor project, luminescence, kanamycin, BacTiterGlo, confirmation (AID 1900); format: functional, organism-based
Streptokinase A = target: T1, Streptokinase A (Streptococcus pyogenes serotype M1, UniProt P10520); experiment: S. pyogenes streptokinase expression inhibitors, potency, dose response, plasminogen activation absorbance, OD405 (AID 1914); format: functional, Streptococcus pyogenes M1 GAS;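 further: secreted streptokinase activity via plasminogen activation per viability signal from cell pellet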
T1 sequence (P10520 whole entry): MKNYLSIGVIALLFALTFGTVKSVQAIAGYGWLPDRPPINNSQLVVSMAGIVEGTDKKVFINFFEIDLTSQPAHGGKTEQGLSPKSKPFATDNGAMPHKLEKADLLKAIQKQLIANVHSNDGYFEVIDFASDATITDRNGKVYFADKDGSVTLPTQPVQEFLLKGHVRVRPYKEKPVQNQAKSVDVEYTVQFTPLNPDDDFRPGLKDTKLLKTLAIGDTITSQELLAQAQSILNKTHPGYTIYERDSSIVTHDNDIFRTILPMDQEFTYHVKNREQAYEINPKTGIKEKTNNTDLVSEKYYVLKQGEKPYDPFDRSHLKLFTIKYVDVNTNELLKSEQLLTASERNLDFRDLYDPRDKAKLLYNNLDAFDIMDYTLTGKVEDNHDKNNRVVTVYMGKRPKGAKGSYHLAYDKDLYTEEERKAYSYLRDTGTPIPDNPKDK

Streptococcus = experiment: Group A Streptococcus viability loss, dose response, counter-screen for streptokinase expression inhibitor project, luminescence, BacTiterGlo (AID 1915); format: functional, organism-based;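 further: potency for reduction of bacterial viability or growth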
Cytochrome P450 3A4 = Cytochrome P450 3A4 (Homo sapiens, UniProt P08684);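 further: CYP3A4 tested as one member of a cytochrome P450 panel screen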
Sequence of Cytochrome P450 3A4 (P08684 whole entry): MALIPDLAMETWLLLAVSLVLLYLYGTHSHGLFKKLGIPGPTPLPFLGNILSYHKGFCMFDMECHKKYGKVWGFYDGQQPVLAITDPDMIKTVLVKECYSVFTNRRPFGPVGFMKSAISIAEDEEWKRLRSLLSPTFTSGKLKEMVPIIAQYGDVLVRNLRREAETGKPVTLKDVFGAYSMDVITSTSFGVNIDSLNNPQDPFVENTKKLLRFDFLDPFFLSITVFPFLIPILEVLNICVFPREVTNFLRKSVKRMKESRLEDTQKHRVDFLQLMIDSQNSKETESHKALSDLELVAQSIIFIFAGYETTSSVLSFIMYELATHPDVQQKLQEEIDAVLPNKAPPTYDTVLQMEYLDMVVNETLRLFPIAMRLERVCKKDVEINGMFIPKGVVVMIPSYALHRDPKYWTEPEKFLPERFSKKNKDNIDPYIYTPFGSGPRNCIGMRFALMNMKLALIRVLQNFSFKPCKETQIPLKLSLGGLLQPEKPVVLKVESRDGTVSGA

Cytochrome P450 2C9 = Cytochrome P450 2C9 (Homo sapiens, UniProt P11712)
Sequence of Cytochrome P450 2C9 (P11712 whole entry): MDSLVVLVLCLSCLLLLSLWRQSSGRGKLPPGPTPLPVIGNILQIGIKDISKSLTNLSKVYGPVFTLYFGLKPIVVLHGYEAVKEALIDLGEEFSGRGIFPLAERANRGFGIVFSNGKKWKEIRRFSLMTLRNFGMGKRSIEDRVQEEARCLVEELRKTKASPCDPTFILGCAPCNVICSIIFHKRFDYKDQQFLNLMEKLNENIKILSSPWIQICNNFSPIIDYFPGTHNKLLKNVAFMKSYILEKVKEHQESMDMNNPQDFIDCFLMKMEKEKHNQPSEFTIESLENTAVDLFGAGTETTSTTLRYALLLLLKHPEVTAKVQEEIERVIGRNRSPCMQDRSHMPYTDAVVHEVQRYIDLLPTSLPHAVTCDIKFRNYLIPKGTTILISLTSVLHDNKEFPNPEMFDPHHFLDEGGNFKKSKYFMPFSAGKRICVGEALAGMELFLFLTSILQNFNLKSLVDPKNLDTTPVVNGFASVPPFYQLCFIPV

[2] = target: T2, Corticotropin-releasing factor receptor 2/Corticotropin-releasing factor-binding protein (Homo sapiens, UniProt P24387+Q13324); experiment: activators of CRF receptor 2 with binding protein – uHTS hits, confirmation (AID 602473); format: functional; conditions: read-out: EC50_Mean
T2 sequence (Q13324 whole entry): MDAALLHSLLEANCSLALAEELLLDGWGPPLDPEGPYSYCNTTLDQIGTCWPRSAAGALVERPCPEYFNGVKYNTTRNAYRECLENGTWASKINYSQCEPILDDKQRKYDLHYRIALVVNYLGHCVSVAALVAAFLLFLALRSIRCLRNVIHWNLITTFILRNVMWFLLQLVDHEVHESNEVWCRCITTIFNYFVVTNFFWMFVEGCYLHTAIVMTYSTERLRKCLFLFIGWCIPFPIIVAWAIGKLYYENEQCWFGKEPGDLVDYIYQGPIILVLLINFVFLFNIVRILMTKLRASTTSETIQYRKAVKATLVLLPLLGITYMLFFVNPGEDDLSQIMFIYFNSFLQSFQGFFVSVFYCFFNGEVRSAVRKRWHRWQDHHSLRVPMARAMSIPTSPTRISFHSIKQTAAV
T2 sequence (P24387 whole entry): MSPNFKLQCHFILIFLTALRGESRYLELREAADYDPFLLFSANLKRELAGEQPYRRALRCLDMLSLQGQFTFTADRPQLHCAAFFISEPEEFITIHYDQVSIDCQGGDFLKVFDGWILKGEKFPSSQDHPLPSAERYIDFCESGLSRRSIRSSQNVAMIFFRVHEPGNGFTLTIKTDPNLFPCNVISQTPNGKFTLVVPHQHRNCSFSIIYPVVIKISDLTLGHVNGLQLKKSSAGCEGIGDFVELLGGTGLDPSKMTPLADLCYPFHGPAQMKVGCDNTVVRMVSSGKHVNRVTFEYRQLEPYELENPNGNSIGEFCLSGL

[3] = inhibitors of intracellular T. cruzi replication, confirmation, NIH3T3 host cells, beta-gal luminescence (AID 2044); format: functional, cell-based;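 further: intracellular parasites grown in NIH/3T3 mouse fibroblasts as host cells; luminescent beta-galactosidase reporter signal from transgenic T. cruzi replicating inside host cells; inhibitors lower the luminescence signal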
[4] = cytotoxicity toward NIH3T3 fibroblasts, dose response, counter-screen, cell-based, ATP luminescence, mouse fibroblasts (AID 2010); format: functional;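 further: cells exposed to compound for about 90 hours before reading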

Structure (SMILES) | EC50 [1] | EC50 (Streptokinase A) | EC50 (Streptococcus) | also measured
CC(C)Sc1cc(N2CCCC2)nc(-c2ccc(F)cc2)n1 | 6.81 µM (active) | 10.9 µM (active) | 23.8 µM (active) | AC50 (Cytochrome P450 3A4): 17.8 µM (inconclusive); AC50 (Cytochrome P450 2C9): 7.94 µM (inconclusive)
C#CCCCO/N=C1/C[C@@H](O)[C@@H](O)[C@@H]2[C@@H]3C(=O)N(C[C@@H]4CCCO4)C(=O)[C@H]3CC[C@@H]12 | – | – | – | AC50 (Cytochrome P450 3A4): 3.98 µM (inconclusive)
C=CCNCCOCCOc1ccc(C)cc1[N+](=O)[O-] | – | – | – | AC50 (Cytochrome P450 3A4): 12.6 µM (inconclusive)
Cc1cc(NC(=O)CN2C(=O)c3ccccc3C2=O)no1 | > 150 µM (not active) | > 150 µM (not active) | > 150 µM (not active) | –
Cc1ccc(C)c(NC(=O)NCc2ccc(Cl)cc2)c1 | – | – | – | AC50 (Cytochrome P450 3A4): 2.51 µM (inconclusive)
O=C(Cc1ccccc1)NN1C(=O)/C(=C/c2c[nH]c3ccccc23)SC1=S | 20.4 µM (active) | > 150 µM (not active) | > 150 µM (not active) | –
CO[C@@H]1COC(=O)C/C=C\[C@@H](C)[C@@H]2C=C[C@H](O)[C@@H](COC(=O)CCC[C@H]1C)O2 | – | – | – | AC50 (Cytochrome P450 3A4): 3.98 µM (inconclusive)
O=c1c(-c2cc(F)cc(F)c2)nc2cnc(Oc3ccccc3)nc2n1C[C@H]1CCCO1 | – | – | – | AC50 (Cytochrome P450 3A4): 15.8 µM (inconclusive)
Fc1ccc(-c2[nH]ncc2-c2nnnn2-c2ccccc2)c(F)c1 | – | – | – | AC50 (Cytochrome P450 3A4): 10 µM (inconclusive)
CCN(CC)C(=O)c1cnc2ccc(S(=O)(=O)Nc3cc(C)cc(C)c3)cc2c1O | – | – | – | EC50 [2]: 4.85 µM (active)
C=CCn1c(NCc2cc(Cl)ccc2O)nc2ccccc21 | > 150 µM (not active) | > 150 µM (not active) | > 150 µM (not active) | –
NC(=S)N/N=C/c1ccc2ccccc2c1 | – | – | – | EC50 [3]: 0.858 µM (active); EC50 [4]: > 60 µM (not active)
Cc1cc(/C=C2\SC(=S)NC2=O)c(C)n1-c1cccc(O)c1 | 6.9 µM (active) | – | 49.7 µM (inconclusive) | –
COc1ccc(-c2ccc3c(n2)CCCN3C[C@H](O)CN2CCCc3nc(-c4ccc(Br)cc4)ccc32)cc1 | – | – | – | AC50 (Cytochrome P450 2C9): 3.98 µM (inconclusive) and 3.16 µM (inconclusive)
N#Cc1c(O)nc(SCc2ccc(Cl)cc2)nc1-c1ccccc1 | 11.4 µM (active) | – | 14.1 µM (active) | –
C=CCSc1nc2ccccc2c(=O)n1Cc1ccccc1 | 15.7 µM (active) | > 150 µM (not active) | 99.4 µM (active) | –
Cc1cc(C(F)(F)F)c(C#N)c(SCC(=O)Nc2nc3cc(Br)ccc3s2)n1 | 3.48 µM (active) | 17.5 µM (active) | > 150 µM (not active) | –
CC(C)Oc1ccc2c(=O)c3cc(C(=O)O)ccc3oc2c1 | – | – | – | AC50 (Cytochrome P450 2C9): 31.6 µM (inconclusive)
O=C(c1cccs1)N1N=C(c2ccccc2)CC1c1ccccc1O (configuration not stated) | – | – | – | EC50 [3]: 2.84 µM (active); EC50 [4]: > 60 µM (not active)
CCc1ccc(NC(S)=NC2CC3CCCC(C2)N3Cc2cccs2)cc1 (configuration not stated) | – | – | – | EC50 [3]: 5.85 µM (active); EC50 [4]: > 60 µM (not active)
Cc1ccc(S(=O)(=O)Nc2cc(C)c(O)c(S(=O)(=O)c3ccc(C)cc3)c2)cc1 | 39.6 µM (active) | > 150 µM (not active) | > 150 µM (not active) | –
O=c1c2ccc([N+](=O)[O-])cc2ncn1CCOc1cccc(Br)c1 | – | – | – | EC50 [3]: 0.212 µM (active); EC50 [4]: > 60 µM (not active)
CCOC(=O)Cn1cc(C=C2C(=O)N(C)C(=O)N(C)C2=O)c2ccccc21 | – | – | – | EC50 [2]: 5.34 µM (active)
CC(Nc1nc(-c2ccccc2O)nc2ccccc12)c1ccccc1 (configuration not stated) | 9.99 µM (active) | 8.55 µM (active) | > 150 µM (not active) | –
CN1CCC(N(C)CC(=O)Nc2cccc(Oc3ccccc3)c2)CC1 | – | – | – | EC50 [3]: < 0.1 µM (active); EC50 [4]: > 60 µM (not active)
O=C(c1cc(-c2ccncc2)nc2ccccc12)N1CCN(c2ccccn2)CC1 | – | – | – | EC50 [3]: 1.1 µM (active); EC50 [4]: 10 µM (active)
